The record followed here is US11773368B2, “Culture method for differentiating primordial germ cells into functionally mature oocytes” (TOKYO UNIVERSITY OF AGRICULTURE, priority 2015, dated 2023).

Assay [1] has as its system primordial germ cells in gonads from female mouse fetuses at 12.5 dpc. Briefly: In vitro organ culture of gonad (secondary follicle formation). The assay is classed as cell-based. Here is the method:
For the medium of the organ culture, the basal medium supplemented with FBS (Gibco, Thermo Fisher Scientific Inc.), SPS (SAGE In vitro Fertilization), the estrogen receptor antagonist, 7α, 17β-[9-([4,4,5,5,5-pentafluoropentyl]sulfinyl)nonyl]estra-1,3,5(10)-triene-3,17-diol; ICI 182,780 (ICI; Tocris Bioscience), 4-hydroxytamoxifen (Sigma-Aldrich), and MPP (Methylpiperidino pyrazole; Cayman Chemical) were added at the indicated concentrations for each experimental group below. The α-MEM medium (Gibco, Thermo Fisher Scientific Inc.) supplemented with 1.5 mM 2-O-α-d glucopyranosyl-1-ascorbic acid (Tokyo Chemical Industry), 10 units/mL penicillin, and 10 μg/mL streptomycin (Sigma-Aldrich) was used as a basal medium (referred to the basal medium hereafter as α-MEM).
ICI 182,780 and 4-hydroxytamoxifen was prepared as follows. ICI 182,780 and 4-hydroxytamoxifen was diluted to 100 mM using DMSO, and cryopreserved stock was prepared. MPP was diluted to 10 mM using DMSO, and cryopreserved stock was prepared. 1 mM solutions of ICI 182, 780 and 4-hydroxytamoxifen were prepared by diluting the 100 mM stocks 100-fold with DMSO just before use and were added to the medium at the indicated final concentrations for each experimental group. MPP was added to the medium at 1 μM as the final concentration just before use.
The gonads for the organ culture were collected with mesonephros or without mesonephros from female mouse fetuses at 12.5 dpc (FIG. 1a). 2.2 ml of the medium was added to each 6-well culture plate used for the organ culture. Transwell®-COL membrane (3.0-μm pore size, 24-mm diameter; Corning) was put on each well of the 6-well culture plate. The gonads were transferred on the membrane and were cultured for 17 days at 37° C. under 5% CO2 and 95% air. Approximately half of the medium in each well was replaced with fresh medium every other day. In the example in which the gonad was cultured with mesonephros, mesonephros was removed from the gonad at day 7 of the organ culture.
The in vitro organ culture of the gonads was performed according to the following conditions described below. The gonads were cultured for total 17 days in each conditions below (FIG. 2):
(i) culture for the complete 17 days period in 10% FBS containing α-MEM (α-MEM+FBS; FBS group);
(ii) culture for the complete 17 days period in 10% SPS containing α-MEM (α-MEM+SPS; SPS group);
(iii) culture for the complete 17 days period in 10% KSR containing α-MEM (α-MEM+KSR; KSR group);
(iv) culture in 10% FBS containing α-MEM for 4 days with a shift to 10% SPS containing α-MEM for 6 days from day 5 and a shift to 10% FBS containing α-MEM until day 17 from day 11 (αMEM+FBS/SPS; FBS/SPS group);
(v) culture in 10% FBS containing α-MEM for 4 days with a shift to 10% FBS containing α-MEM with the addition of 10 nM, 100 nM, 1 μM, 5 μM, or 10 μM (final concentration) ICI for 6 days from day 5 and a shift to 10% FBS containing α-MEM until day […] (αMEM+FBS/10 nM ICI; FBS/10 nM ICI group, αMEM+FBS/100 nM ICI; FBS/100 nM ICI group, αMEM+FBS/1 μM ICI; FBS/1 μM ICI group, αMEM+FBS/5 μM ICI; FBS/5 μM ICI group, or αMEM+FBS/10 μM ICI; FBS/10 μM ICI group);
(vi) culture in 10% FBS containing α-MEM for 4 days with a shift to 10% FBS containing α-MEM with the addition of 1 μM (final concentration) 4-hydroxytamoxifen for 6 days from day 5 and a shift to 10% FBS containing α-MEM until day 17 from day 11 (αMEM+FBS/1 μM Tamoxifen; FBS/1 μM Tamoxifen group);
(vii) culture in 10% FBS containing α-MEM for 4 days with a shift to 10% FBS containing α-MEM with the addition of 1 μM (final concentration) MPP for 6 days from day 5 and a shift to 10% FBS containing α-MEM until day 17 from day 11 (αMEM+FBS/1 μM MPP; FBS/1 μM MPP group).
Vitrification and warming were conducted as follows by reference to Wang, X. et al., “Successful in vitro culture of pre-antral follicles derived from vitrified murine ovarian tissue: oocyte maturation, fertilization, and live births.” Reproduction 141, 183-191 (2011). […]

For assay [2], the system named is cumulus-oocyte complexes (COCs). Briefly: In vitro maturation to egg. The format is cell-based, mouse. Here is the method:
The cumulus-oocyte complexes (COCs) were collected from the secondary follicles obtained by “3. In vitro growth culture of secondary follicle” described above. Then, COCs were cultured with α-MEM containing 5% FBS, 0.1 IU/mL FSH, 1.2 IU/mL chorionic gonadotropin (Gonatropin, ASKA Pharmaceutical), and […] (Gibco, Thermo Fisher Scientific Inc.) for 17 hours. Control COCs were collected from adult female mice 44 hours after the injection with equine CG (Serotropin; ASKA Pharmaceutical). The obtained COCs obtained from the adult female mice, in vivo-derived COCs, were cultured with α-MEM containing 5% FBS, 0.1 IU/mL FSH, 1.2 IU/mL chorionic gonadotropin, and 4 ng/mL epidermal growth factor in the same way to in vitro-derived COCs. As a result of in vitro maturation, in (ii) SPS group, (iv) FBS/SPS group, and (v) FBS/ICI group, 77 to 95% oocytes released the first polar body after 17 hours and became MII oocytes (FIGS. 11b and c).

Setting [3] is: FBS/1 μM ICI group (ICI day 5-11), 19 cultured gonads.
[4] abbreviates: FBS/5 μM ICI group (ICI day 5-11), 6 cultured gonads.
Where [5] appears, read: FBS/10 μM ICI group (ICI day 5-11), 6 cultured gonads.
Setting [6] is: Vitrification FBS/1 μM ICI (vitrified-warmed gonads), 4 cultured gonads.

“Also recorded” adds a separate entry of the source.

Take `C[C@]12CC[C@@H]3c4ccc(O)cc4C[C@@H](CCCCCCCCC[S+]([O-])CCCC(F)(F)C(F)(F)F)[C@H]3[C@@H]1CC[C@@H]2O` (stereo partly drawn) [ICI, 7α, 17β-[9-([4,4,5,5,5-pentafluoropentyl]sulfinyl)nonyl]estra-1,3,5(10)-triene-3,17-diol]: in assay [1] ((v) FBS/ICI group, FIG. 3d (10 μM ICI)), the “follicle morphology of the ovary under an optical microscope” value is “abnormalities were significantly improved”. In assay [1] ((v) ICI group, 10 nM, 100 nM, 1 μM, 5 μM or 10 μM ICI day 5-11, FIG. 4), the “number of the collected secondary follicles” value is reported as “increased depending on the ICI concentration; also recorded: significantly increased compared to FBS group”. The “No. of collected follicles” value was 641 in assay [1] (setting [3]), 312 in assay [1] (setting [4]), 505 in assay [1] (setting [5]) and 57 in assay [1] (setting [6]). In assay [1] (vitrified and warmed gonads, FBS/1 μM ICI conditions), the “follicles obtained from one ovary” value is listed as “about 14”. Further, the “No. of oocytes matured into MII, proportion to the number of collected follicles” value in assay [2] (FBS/1 μM ICI group (ICI day 5-11)) is listed as 50.1%; in assay [2] (FBS/5 μM ICI group (ICI day 5-11)), 53.8%; in assay [2] (FBS/10 μM ICI group (ICI day 5-11)), 50.7%; in assay [2] (Vitrification FBS/1 μM ICI (vitrified-warmed gonads)), 64.9%. The “No. of oocytes matured into MII” value in assay [2] (setting [3]) came to 321; in assay [2] (setting [4]), 168; in assay [2] (setting [5]), 256; in assay [2] (setting [6]), 37.
